We go through 1 compound from patent US8487006B2, “Method of enhancing TGF-β signalling” (Auxagen, Inc., priority 2008, dated 2013).

The test system of test [1] is TGF-β1-stimulated Smad2 phosphorylation in Mv1Lu cells. Put plainly: TGF-β1-stimulated Smad2 phosphorylation, quantitative Western blot (P-Smad2/Smad2). The class given is cell-based. As to conditions: several concentrations of the inhibitors, 100 pM TGF-β1 for 30 min. The method, then:
(A-I, K) Cells were pretreated with 10 mg/ml β-CD (A, K), 20 LM MDC (B), 40 μM monensin (C), 20 μM TFP (D) and 0.45 M sucrose (K) or several concentrations (as indicated) of β-CD (E), TFP (F), monensin (G), chloroquine (H), dynasore (I), at 37° C. for 1 h. The cells were then stimulated with vehicle only or […] TGF-β1 (A to I) or several concentrations (as indicated) of TGF-β1 (K). After several time periods, as indicated, at 37° C., cell lysates were analysed by 7.5% SDS PAGE followed by Western blot analysis using antibodies to P-Smad2 and Smad2 and chemiluminescence development (a or top) and quantitation by densitometry (b or bottom). The relative level of P-Smad2 was expressed as arbitrary units (A.U.) (A, B, C, D, K) (b). The relative level of P-Smad2 in cells treated with TGF-β alone was taken as 100% of control (E to I, bottom). The data shown is representative of 3 independent experiments. (J) Cells were pretreated with 10 mg/ml β-CD (c,d) at 37° C. for 1 h. The cells were then stimulated with vehicle only (a) or with 100 pM TGF-β (b,d). After 30 min at 37° C. the cells were fixed and subjected to indirect immunofluorescent staining using antibody to P-Smad2. The magnification is 200×. The data shown is representative of 3 independent experiments.
If TGF-β-induced signaling occurs in endosomes, as reported previously^6-15, inhibitors of clathrin-dependent endocytosis would be expected to attenuate TGF-β-stimulated signaling such as Smad2 phosphorylation and nuclear colocalization^4,5. To test this, Mv1Lu cells were pretreated with vehicle only or with clathrin-dependent endocytosis inhibitors at 37° C. for 30 min and then treated with or without 100 pM TGF-β1. After several time periods, the relative levels of P-Smad2 in treated and stimulated cells were analyzed by quantitative Western blot analysis using antibodies to P-Smad2 and Smad2. […] After stimulation of cells with TGF-β1 for 60 min, β-CD, TFP, MDC and monensin enhanced TGF-β1-stimulated Smad2 phosphorylation by ˜1.5-2.5 fold (FIGS. 1Ab, 1Bb, 1Cb, and 1Db). To further characterize the effects of these inhibitors on Smad2 phosphorylation, Mv1Lu cells were pretreated with vehicle only or with several concentrations of the inhibitors at 37° C. for 30 min and then stimulated with 100 pM of TGF-β1. After 30 min at 37° C., cell lysates were subjected to Western blot analysis using antibodies to P-Smad2 and Smad2 followed by quantitation with densitometry. […] To determine the effect of β-CD on TGF-β1-stimulated nuclear localization of P-Smad2, Mv1Lu cells were pretreated with vehicle only or with β-CD (10 mg/ml). After 1 h at 37° C., cells were stimulated with TGF-β1 ([…]) for 30 min. The nuclear localization of P-Smad2 was then analyzed by indirect fluorescent staining.
To define the coated-pit stages that are important in TGF-β1-induced signaling, we treated Mv1Lu cells with hyperosmotic sucrose (0.45 M) or β-CD and examined TGF-β1-stimulated Smad2 phosphorylation in these cells. […] In cells stimulated with 100 pM TGF-β1, hyperosmotic sucrose attenuated Smad2 phosphorylation by ˜60% (FIG. 1Kb). On the other hand, β-CD enhanced TGF-β1-stimulated Smad2 phosphorylation at all concentrations of TGF-β1. It enhanced TGF-β1-stimulated Smad2 phosphorylation by 2-4 fold when compared with the control (treatment without β-CD) (FIGS. 1Ka and 1Kb).
For orientation: A western blot detects proteins with antibodies after separation by electrophoresis.

The test system of test [2] is TβR-I and SARA at the plasma membrane in Mv1Lu cells. Put plainly: Co-localization and accumulation of TβR-I and SARA, immunofluorescent microscopy. The format is cell-based. Particulars: 20 μM TFP, 10 mg/ml β-CD, 40 μM dynasore, 200 μM chloroquine, with 100 pM TGF-β1, 30 min. The method, then: Cells were pretreated with vehicle only or 20 μM TFP, 10 mg/ml β-CD, 40 μM dynasore (Dyn) and 200 μM chloroquine (CQ) at 37° C. for 1 h. Treated cells were then stimulated with and without 100 pM TGF-β1. After 30 min at 37° C., cells were fixed and analyzed by indirect immunofluorescent staining using antibody to TβR-I (panels 1-10) and SARA (panels 11-20), DAPI (nuclear) staining was also performed (panels 21-30). Merged staining is also shown (panels 31-40). Insets indicate the co-localization and accumulation of SARA and TβR-I at the plasma membrane.
TGF-β stimulates Smad2 phosphorylation by inducing association of TβR-I and SARA^6,7 (which serves as an anchor for Smad2), binding of Smad2 to SARA, and subsequent phosphorylation of Smad2 by TβR-I in the TβR-1-SARA-Smad2 complex. If clathrin-dependent endocytosis inhibitors enhance TGF-β-induced signaling (TGF-β-stimulated Smad2 phosphorylation) by increasing accumulation of TβR-I/TβR-II complexes at the coated pits, they should promote co-localization and accumulation of TβR-I and SARA at the plasma membrane. To test this, Mv1Lu cells were stimulated with 100 pM TGF-β1. After 30 min at 37° C., […] analyzed by immunofluorescent microscopy using antibodies to TβR-I and SARA. […] This is consistent with the previous report that TGF-β enhances TGF-β receptor internalization^16.

Take `O=C(N/N=C/c1ccc(O)c(O)c1)c1cc2ccccc2cc1O` [dynasore]: the “concentration dependence of the effect on TGF-β1-stimulated Smad2 phosphorylation” value in test [1] is reported as “enhanced TGF-β1-stimulated Smad2 phosphorylation in a concentration-dependent manner”. The “co-localization and accumulation of TβR-I and SARA at the plasma membrane, co-treatment with TGF-β1” value in test [2] is “promoted co-localization and accumulation of TβR-I and SARA at the plasma membrane”.
